In patent US5464617A, “β-lactam compounds” (Hoffmann-La Roche Inc., priority 1994, dated 1995):
Structures can show the parent of a compound that is named as a salt.

Tests used:
[1] = test system: Citrobacter freundii 1982; experiment: MIC in vitro of a 1:4 combination of ceftriaxone with a compound of formula I (Test D); assay type: cell-based; settings: for MIC C. freundii 1982 (D): test D
Protocol: The minimum inhibitory concentration in vitro ([…]) of a 1:4 combination of ceftriaxone with a compound of formula I against Citrobacter freundii 1982 was measured and compiled in Table 2 hereinafter.

E. coli 1346 = experiment: Antibacterial activity of the products per se, serial dilution method in liquid medium (Test E); assay type: cell-based; settings: product per se; for MIC E. coli 1346 (E): test E
Excerpt: The antibacterial activity of the products per se is illustrated on the basis of Table 3 hereinafter, the minimum inhibitory concentration […] in vitro against E. coli 1346 being determined using the serial dilution method in liquid medium: […]

[2] = Table 4, 1:4 combination of ceftriaxone with the compound

SMILES | MIC C. freundii 1982 (D) [1, 2] [µg/mL] | MIC E. coli 1346 (E) (E. coli 1346; Table 4) [µg/mL] | other results
O=C(Cn1nnnc1SCC1=C(C(=O)O)N2C(=O)[C@@H]3[C@H]2[C@H](C1)CN3C(=O)C(F)(F)F)Nc1ccc(O)cc1 [78(b), (1aS,3aR,6bR)-5-[1-(4-Hydroxy-phenylcarbamoylmethyl)-1H-tetrazol-5-ylsulphanylmethyl]-1-oxo-2-trifluoroacetyl-1a,2,3,3a,4,6b-hexahydro-1H-2,6a-diazacyclobut[cd]indene-6-carboxylic acid sodium salt] | 1 | 1 | –
O=CN1C[C@H]2OC(CSc3nnnn3CC(=O)NOC(c3ccccc3)(c3ccccc3)c3ccccc3)=C(C(=O)O)N3C(=O)[C@@H]1[C@@H]23 [38(d), (1aS,3aR,6bS)-2-Formyl-1-oxo-5-(1-(trityloxycarbamoylmethyl)-1H-tetrazol-5-ylsulphanylmethyl)-1,1a,2,3,3a,6b-hexahydro-4-oxa-2,6a-diazacyclobut[cd]indene-6-carboxylic acid sodium salt] | 128 | > 32 | –
CS(=O)(=O)OC1=C(C(=O)O)N2C(=O)[C@@H]3[C@H]2[C@H](C1)CN3C(=O)Nc1ccc(O)cc1 [9(a), (1aS,3aR,6bR)-2-(4-Hydroxy-phenylcarbamoyl)-5-methylsulphonyloxy-1-oxo-1a,2,3,3a,4,6b-hexahydro-1H-2,6a-diazacyclobut[cd]indene-6-carboxylic acid sodium salt] | – | – | MIC C. freundii 1982 ([1]; Table 2, 1:4 combination of ceftriaxone with the compound): 0.12 µg/mL; MIC E. coli 1346 (E. coli 1346; Table 3, liquid medium): 32 µg/mL
CNC(=O)OCC1=C(C(=O)O)N2C(=O)[C@@H]3[C@H]2[C@H](C1)CN3C(C)=O [98(a), (1aS,3aR,6bR)-2-Acetyl-5-methylcarbamoyloxymethyl-1-oxo-1a,2,3,3a,4,6b-hexahydro-1H-2,6a-diazacyclobut[cd]indene-6-carboxylic acid sodium salt] | 1 | 2 | –
O=C(O)C1=C(CSc2ccncc2)C[C@@H]2CN(C(=O)NCc3ccc(O)cc3)[C@@H]3C(=O)N1[C@H]23 [18(i), (1aS,3aR,6bR)-2-(4-Hydroxy-benzylcarbamoyl)-1-oxo-5-(pyridin-4-ylsulphanylmethyl)-1a,2,3,3a,4,6b-hexahydro-1H-2,6a-diazacyclobut[cd]indene-6-carboxylic add sodium salt] | 4 | 32 | –
[N-]=[N+]=NCC1=C(C(=O)O)N2C(=O)[C@@H]3[C@H]2[C@H](C1)CN3C(=O)Nc1ccc(O)cc1 [Example 82, (1aS,3aR,6bR)-5-Azidomethyl-2-(4-hydroxy-phenylcarbamoyl)-1-oxo-1a,2,3,3a,4,6b-hexahydro-1H-2,6a-diazacyclobut[cd]indene-6-carboxylic acid sodium salt] | 0.25 | 16 | –
CNC(=O)Cn1nnnc1SCC1=C(C(=O)O)N2C(=O)[C@H]3NC[C@@H](C1)[C@H]32 [Example 73, (1aS,3aR,6bR)-5-(1-Methylcarbamoylmethyl-1H-tetrazol-5-ylsulphahylmethyl)-1-oxo-1a,2,3,3a,4,6b-hexahydro-1H-2,6 a-diazacyclobut[cd]indene-6-carboxylicacid trifluoroacetate] | 1 | 1 | –
Nc1nnc(SCC2=C(C(=O)O)N3C(=O)[C@@H]4[C@H]3[C@H](C2)CN4C(=O)Nc2ccc(O)cc2)s1 [18(d), (1aS,3aR,6bR)-5-(5-Amino-1,3,4-thiadiazol-2-ylsulphanylmethyl)-2-(4-hydroxy-phenylcarbamoyl)-1-oxo-1a,2,3,3a,4,6b-hexahydro-1H-2,6a-diazacyclobut[cd]indene-6-carboxylic acid sodium salt] | – | – | MIC C. freundii 1982 (D) ([1]; Table 5, particularly preferred products, 1:4 combination with ceftriaxone): ≤ 0.06 µg/mL; MIC E. coli 1346 (E) (E. coli 1346; Table 5, particularly preferred products): 32 µg/mL
NC(=O)CNC(=O)OCC1=C(C(=O)O)N2C(=O)[C@@H]3[C@H]2[C@H](C1)CN3C(=O)C(F)(F)F [96(b), (1aS,3aR,6bR) 5-Carbamoylmethylcarbamoyloxymethyl-1-oxo-2-trifluoroacetyl-1a,2,3,3a,4,6b-hexahydro-1H-2,6a-diazacyclobut[cd]indene-6-carboxylic acid sodium salt] | 0.5 | 2 | –
